Data published in patent US12002595B2, “Separation of metal ions by liquid-liquid extraction” (priority 2016, dated 2024).

Tests used:
[1] = cited from earlier work
[2] = Extraction by HDEHP as a function of pH with hold-back reagent
Experimental: (§1) All liquid-liquid extractions were conducted using a 1:1 organic to aqueous phase ratio for a total volume of 1 mL. Samples were pH adjusted by HNO3 and prepared for a final concentration of 1.0 M sodium lactate, 40 mM of hold-back reagent (160 mM in the case of the HOPO monomer), and 2.0 M Na^+. The concentration of the trivalent f-element was dependent on the availability and radioactivity of the isotopes. The organic phase consisted of 0.5 M HDEHP in kerosene. All samples were incubated in a thermostatic shaker held at 28° C. and rocked at 280 rpm for 90 minutes. To ensure complete phase separation, samples were left overnight at room temperature to equilibrate. Radioactive samples were analyzed by liquid scintillation counting (LSC). The analytical protocol consisted of diluting 10 uL of radioactive sample into 10 mL of Ultima Gold™. Ultima Gold™ is a commercially available analytical reagent commonly used for LSC. The resulting analytical samples were shaken for 10 min prior to counting on a Perkin-Elmer Packard Tri-Carb instrument (model B4430).
(§2) Data was analyzed by the distribution ratio (Dm), separation factor (SFm1/m2) and extraction percentage (% Extraction) as defined by Equations (6), (7) and (8), respectively. Equation (8) uses concentrations of the metal in each phase since the aqueous: organic ratio was 1. Both the organic and aqueous phases were analyzed after liquid-liquid extraction and phase separation. These calculation methods rely on the assumptions that no metal (M) is lost to sorption or precipitation and that no volume variation occurred during the mass transfer between the aqueous and organic phases.
(§3) In FIG. 23, aqueous phase: [ligand]=40 mM, buffer sodium lactate/sodium nitrate. Organic phase: [HDEHP]=0.5 M, kerosene diluent. T=25° C. O/A=1, one contact. Initial metal concentrations: [Ac-225]=0.4 nM, [Am-243]=40.4 nM, or [Gd]=500 μM (spiked with Gd-153 for LSC measurements).
as §3, with “17,” for “23,”, “nitrate, organic” for “nitrate. Organic”, “measurements). Separation factor=ratio M1/M2 in the final organic phase/ratio M1/M2 in the initial aqueous phase. […]” for “measurements).”

[3] = Extraction by HDEHP with 1 mM 343HOPO in 0.1 M HNO3 and 1.9 M NaNO3
Experimental: Aqueous phase: 1 mM 343HOPO in 0.1 M HNO3 and 1.9 M NaNO3. Organic phase: HDEHP in kerosene.
A log scale is used for clarity. See FIGS. 58A and 58B for results as a function of the phase ratio.
For Example 20—Example 24, pH measurements were performed with a glass electrode (Metrohm-Micro Combi-response to [H+]) calibrated at 25.0° C. using three NIST standards. Extraction samples were analyzed by liquid scintillation counting (LSC). The distribution coefficient, D(M), of a given metal, M, is defined in Eq. 1, where [M]organic and [M]aqueous are the respective total concentrations of M in the organic and aqueous layers, after extraction. Both concentrations are proportional to the volumetric activity (in Bq/L) determined by LSC. The separation factor, SFM1/M2, between two metals, M1 and M2, and extraction yield were calculated according to Eq. 2 and Eq. 3, respectively.
In a typical experiment, the solvent (extractant diluted in kerosene) was pre-conditioned by shaking one volume of solvent with three volumes of aqueous phase (typically HNO3) at room temperature for 1 h, thrice. For radioisotope extractions, at least 400 μL aqueous phase (typically containing HNO3, a chelator and a radioisotope) and solvent were placed in air-tight screw-capped plastic tubes, triply-contained, and shaken in a thermoshaker at 300 rpm, 25° C., for at least 30 min. Samples were then centrifuged for 5 min at 3000 rpm and phases separated before analysis. LSC analyses were performed on a Packard Tri-Carb B4430 instrument (Perkin Elmer) after mixing sample aliquots or sample dilution aliquots (10 to 200 μL) with 10 mL of scintillation cocktail (UltimaGold LLT). Samples were counted for at least 6 min and results were background subtracted. The analytical samples contained between 0 and 800,000 CPM. Mixtures of ^249Bk and ^249Cf were analyzed using α/β discrimination and energy windows were set to 0-50 keV for low-energy β particles of ^249Bk and 50-1000 keV for α particles of ^249Cf. ^243Am and ^225Ac samples were counted at secular equilibrium.

[4] = Extraction by HDEHP as a function of pH with hold-back reagent; remark: listed apart in the source
Experimental: as §1, §2, §3

[5] = highest value reached, HDEHP/343HOPO-HNO3 system

In the case of `O=C(NCCCN(CCCCN(CCCNC(=O)c1cccc(=O)n1O)C(=O)c1cccc(=O)n1O)C(=O)c1cccc(=O)n1O)c1cccc(=O)n1O` [3,4,3-LI(1,2-HOPO)], the “Last pKa” value [1] is given as 6.64, the “overall acidity (ΣpKa)” value ([1]; literature value compared with ΣpKa5-8 of 3,4,3-LI(CAM)) is given as 21.2 and the SFAc/Am [2, 5] is given as 130,000. The SFAc/Gd [2, 5] was 1,300,000, the SFAc/Am ([2]; pH 0.9 (±0.1)) was 3.99 * 10^2 and the SFAc/Am ([2]; pH 1.5 (±0.1)) was 9.06 * 10^3. For the same molecule, the SFAc/Gd ([2]; pH 1.5 (±0.1)) was 6.55 * 10^2, the SFAc/Am ([2]; pH 3.5 (±0.1)) was 8.13 * 10^4 and the SFAc/Gd ([2]; pH 3.5 (±0.1)) was 4.61 * 10^5. For the same molecule, the SFAc/Am ([2]; pH 4.0 (±0.1)) was 1.28 * 10^5, the SFAc/Gd ([2]; pH 4.0 (±0.1)) was 1.33 * 10^6 and the extraction of actinium ([2]; pH higher than 1.5, 40 mM ligand, 0.5 M HDEHP) was “quantitative extraction”. For the same molecule, the SFAc/Pu ([2]; single step, initial Pu/Ac ratio ~10,000 mol/mol, 40 mM chelator, 0.5 M HDEHP) was “at least 1,000,000”, the “separation factor between Ac and relevant metal impurities” value ([2]; summary statement) was 10^6 and the SFBk/Lu ([3]; single step, room temperature, HDEHP-HNO3-343HOPO system) was ≤ 320,000. For the same molecule, the “extraction of Am^3+” value ([4]; pH higher than 1, 40 mM ligand, 0.5 M HDEHP) was “No extraction”.

For `O=C(O)CN(CCN(CC(=O)O)CC(=O)O)CCN(CC(=O)O)CC(=O)O` [DTPA, Diethylenetriaminepentaacetic acid, reference compound], the “Last pKa” value [1] is given as 10.4, the SFAm/Ac ([2]; HDEHP/DTPA-HNO3 system) is given as “below 10” and the SFGd/Ac ([2]; HDEHP/DTPA-HNO3 system) is given as < 5,300. The “maximum metal extraction of Ac(III)” value ([2]; around pH 1.5) was 49%, the “extraction of Ac(III)” value ([2]; at pH 4) was “less than 10%” and the SFAc/Gd ([2]; pH 0.8 (±0.1)) was <10^−3. The SFAc/Am ([2]; pH 0.9 (±0.1)) was 5.83 * 10^−2, the SFAc/Am ([2]; pH 1.5 (±0.1)) was 2.70 * 10^−1 and the SFAc/Gd ([2]; pH 1.5 (±0.1)) was <10^−3. For the same molecule, the SFAc/Am ([2]; pH 3.5 (±0.1)) was 6.86 * 10^−2, the SFAc/Gd ([2]; pH 3.5 (±0.1)) was <10^−3 and the SFAc/Am ([2]; pH 4.0 (±0.1)) was 1.11 * 10^−1. For the same molecule, the SFAc/Gd ([2]; pH 4.0 (±0.1)) was <10^−3, the “separation between Bk and Cf” value ([3]; chelator in place of 343HOPO, acidic conditions) was “no separation at all” and the “maximum metal extraction of Am(III)” value ([4]; around pH 1.5) was 78%. For the same molecule, the “extraction of Am(III)” value ([4]; at pH 4) was “less than 10%” and the “Extraction of Gd(III)” value ([4]; until after pH 4) was “above 90%”.
